Values of other authors, collected in EP0848611B1, “TACRINE PATCH” (HEXAL AG, priority 1995, dated 1997).

How the values were obtained:
[1] = in vivo

Nc1c2c(nc3ccccc13)CCCC2 [Tacrin, 1,2,3,4-Tetrahydro-9-acridinamin]
Bioverfügbarkeit ([1]; human): 10-30%
Halbwertszeit ([1]; human): 1,5-3,5 h
therapeutischer Blutspiegel [1]: 5 to 70 ng/mL
Anstieg der ALT-Werte (Alaninaminotransferase) (patients): ≤ 20 fachen der oberen normalen Grenze
hepatotoxischer Effekt tritt auf (share of patients): etwa der Hälfte der Patienten
